Experimental data from PubChem BioAssay (NCI).
Several values for one entry are separate records, joined by “and”; a condition that tells them apart may be missing. Identical values can stand only once.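 Method: 48-hour compound exposure of cells in 96-well plates, five concentrations, linear interpolation of endpoints. At the GI50, growth is halved. Definition used: TGI = concentration required for complete inhibition of growth.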 Where a SMILES comes first, the peptide text is derived from it. [ ]: non-standard residue; d: D form. Phe(F5) = N[CH](Cc1c(F)c(F)c(F)c(F)c1F)C(=O)O

Assays:
Assay in all cases: NCI anticancer screen, dose series, 48 h
[1] = test system: HOP-62 NSCLC
[2] = test system: SW-620 colon
[3] = test system: OVCAR-5 ovarian
[4] = test system: HS 578T breast
[5] = test system: HCC-2998 colon
[6] = test system: UO-31 renal
[7] = test system: UACC-62 melanoma
[8] = test system: EKVX NSCLC
[9] = test system: NCI-H460 lung
[10] = test system: OVCAR-8 ovarian

Row | Structure (SMILES) | GI50 [1] [µM] | TGI [1] | GI50 [2] [µM] | TGI [2] [µM] | GI50 [3] [µM] | TGI [3] | GI50 [4] [µM] | TGI [4] [µM] | GI50 [5] [µM] | TGI [5] | GI50 [6] [µM] | TGI [6] | GI50 [7] [µM] | TGI [7] | GI50 [8] [µM] | TGI [8] | GI50 [9] [µM] | TGI [9] | GI50 [10] [µM] | TGI [10]
1 | CCCN1C(=O)/C(=c2\sc3n(c2=O)C2C(NN=3)N(CC)C(=O)N2CC)c2ccccc21 (stereo unspecified) | 0.562 | 16 µM | 0.409 | > 100 | 1.14 | 24.1 µM | 0.386 | > 39.8 | 1.56 | 19.6 µM | 0.744 | 17.6 µM | 0.489 | 17.4 µM | 0.729 | > 57.2 µM | 0.411 | 12.1 µM | 0.688 | 12.3 µM
2 | C=C(C)[C@@H]1CC=C(CO)CC1 | > 10 | > 10 µM and 961 µM | – | 1340 | > 10 | > 10 µM and 798 µM | – | > 10 | > 10 | > 10 µM and 1460 µM | > 10 | > 10 µM and 1050 µM | > 10 | > 10 µM and 964 µM | > 10 | > 10 µM and 1250 µM | > 10 | > 10 µM and 1260 µM | > 10 | > 10 µM and 857 µM
3 | Cc1ccc2[nH]c(C(=O)NN3C(=O)CSC34CCCCC4C)c(-c3ccccc3)c2c1 (stereo unspecified) | 18 | 33.9 µM | 23.8 | 60.1 | 19.7 | 36.1 µM | 27.8 | 96.2 | 16.4 | 31.6 µM | 15.5 | 30.9 µM | 12.8 | 26.8 µM | 17 | 33.8 µM | 18.2 | 43.7 µM | 17.2 | 35.6 µM
4 | Fc1ccc(-c2nc3n(c2-c2ccncc2)CCS3)cc1 | > 25 | > 25 µM | > 25 | > 25 | > 25 | > 25 µM | > 25 | > 25 | > 25 | > 25 µM | 8.26 | > 25 µM | > 25 | > 25 µM | > 25 | > 25 µM | > 25 | > 25 µM | > 25 | > 25 µM
5 | CCOC(=O)Cc1c[nH]c(=S)[nH]c1=O | > 100 | > 100 µM | > 100 | > 100 | > 100 | > 100 µM | > 100 | > 100 | > 100 | > 100 µM | > 100 | > 100 µM | > 100 | > 100 µM | > 100 | > 100 µM | > 100 | > 100 µM | > 100 | > 100 µM
6 | COc1cc(Cn2cc3c(c2)-c2oncc2CC3)cc(OC)c1OC | 0.0479 | > 100 µM | 0.0327 | > 100 | 0.0735 | > 100 µM | 0.0306 | > 51.3 | 0.0413 | 17 µM | 0.0594 | 15.1 µM | 0.0362 | > 81.7 µM | 0.0467 | > 65.7 µM | 0.034 | 1.5 µM | 0.0548 | > 100 µM
7 | COC(=O)C(CC(C)C)NC(=O)C(Cc1cnc[nH]1)NC(=O)CNC(=O)C(NC(=O)C(C)NC(=O)C(Cc1c[nH]c2ccccc12)NC(=O)C(CCC(=O)O)NC(=O)C(N)Cc1c(F)c(F)c(F)c(F)c1F)C(C)C (stereo unspecified) (H-[Phe(F5)]EWAVGHL-OMe; configuration not given here) | > 100 | > 100 µM | > 100 | > 100 | – | > 12.5 µM | – | > 12.5 | > 100 | > 100 µM | 0.991 | > 12.5 µM and 56 µM | > 100 | > 100 µM | > 100 | > 100 µM | > 100 | > 100 µM | > 100 | > 100 µM
8 | C=C1C(=O)O[C@@H]2C1CC(=O)C(C)CC/C=C(\C)CCC[C@H](C)[C@H]2OC(C)=O (stereo partly specified) | 18.2 | 33.3 µM | 9.18 | 21.9 | 18 | 34.6 µM | 15.2 | 36 | 15.6 | 29.9 µM | 11.9 | 29.5 µM | 11.6 | 24.5 µM | 16.3 | 31.5 µM | 21.2 | 43.6 µM | 17.9 | 41.1 µM
9 | CC(=O)OC1c2ccccc2CC2(OC(C)=O)c3ccccc3C12 (stereo unspecified) | – | > 100 µM | – | > 100 | – | > 100 µM | – | > 100 | – | > 100 µM | – | > 100 µM | – | > 100 µM | – | > 100 µM | – | > 100 µM | – | > 100 µM
